The values that follow are results of earlier work, collected in patent US20050203105A1, “Composition and method for controlling alcohol-induced facial flushing in susceptible humans” (priority 2003, published 2005).

Read-outs that look alike come from different tables or passages of the source.

Data set [1] deals with potassium rectifier currents.
For data set [2] the following is noted: for Half-life: increased in renal impairment (cimetidine: also hepatic impairment and the elderly); for Elimination, Urine, Unchanged, Oral / effect of food on absorption: oral.
For data set [3] the following is noted: dose range of 10 to 40 mg.
Data set [4] has as its system alcohol-induced rosacea flushing. The conditions noted are these: subcutaneous pretreatment; 360 ml of 6% ethanol; patients with rosacea.
The subject of a further data set is ethanol intoxication. As to conditions: intravenous.
Another data set concerns the target H1 receptor (Homo sapiens, UniProt P35367).
The test system of a further data set is muscarinic receptors. On the set-up: key: +++++ = Very high; +++ = high; ++ = moderate; + = low; ± = low to none.
For data set [5] the following is noted: given with an MAOI.
Data set [6] deals with alcohol-induced flushing. As to conditions: for rise in skin oxygen tension after sherry: oral, 30 minutes before 30-50 ml of sherry.
In data set [7] the test system is flushing responses to red wine, chocolate and hot water. As to conditions: one patient with carcinoid syndrome; two weeks of oral prior treatment.
For data set [8] the following is noted: for time to peak plasma levels: oral.
In the next data set the test system is QT interval. The conditions noted are these: in vivo.
The subject of data set [9] is alcohol-induced flushing. As to conditions: for Facial flushing: 0.64 gm orally one hour before ethanol.

Sequence of H1 receptor (P35367 whole entry): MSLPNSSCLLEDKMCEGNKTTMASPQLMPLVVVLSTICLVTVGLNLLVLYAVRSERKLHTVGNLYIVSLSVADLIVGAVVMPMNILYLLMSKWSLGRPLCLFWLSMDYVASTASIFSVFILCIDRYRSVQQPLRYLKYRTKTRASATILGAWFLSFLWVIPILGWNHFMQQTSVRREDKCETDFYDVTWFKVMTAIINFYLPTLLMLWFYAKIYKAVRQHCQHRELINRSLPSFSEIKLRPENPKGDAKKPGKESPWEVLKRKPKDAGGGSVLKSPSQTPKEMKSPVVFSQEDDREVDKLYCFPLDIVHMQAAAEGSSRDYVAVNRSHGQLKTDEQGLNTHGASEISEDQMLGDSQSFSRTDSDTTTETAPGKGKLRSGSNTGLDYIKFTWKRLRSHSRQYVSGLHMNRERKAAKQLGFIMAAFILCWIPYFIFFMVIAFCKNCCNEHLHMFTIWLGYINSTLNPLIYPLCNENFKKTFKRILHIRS

`CCOC(=O)N1CCC(=C2c3ccc(Cl)cc3CCc3cccnc32)CC1` [Loratadine, ethyl 4-(8-chloro-5,6-dihydro-11H-benzo[5,6]cyclohepta[1,2-b]pyridin-11-ylidene)-1-piperidinecarboxylate]: the potassium rectifier currents result in data set [1] is listed as “inhibit the potassium rectifier currents”.

For `CNC(=C[N+](=O)[O-])NCCSCc1ccc(CN(C)C)o1` [Ranitidine], in data set [2] (IM), the Bioavailability result is given as “(90-100 IM) %”, the “Peak Plasma Concentration” value was “(0.58 IM) mcg/ml” and the “Time to Peak Plasma Concentration” value is on record as “(0.25 IM) hrs”. In data set [2] (IV), the “Elimination, Urine, Unchanged, IV” value was 68-79%. Also, in [2] (in vivo), the Bioavailability is 50-160%; the “Elimination, Metabolized” value was less than 10%; the “Protein Binding” value is given as 15%; the “Time to Peak Plasma Concentration” value is 1 to 3 h. For the same molecule, in data set [2] (in vivo), the “Volume of Distribution” value is 1.2 to 1.9 L/kg. In data set [2], the Half-life is recorded as 2-3^3 hrs; the “Elimination, Urine, Unchanged, Oral” value is given as 30-35%; the “effect of food on absorption” value is “not significantly impaired by the administration of food”. In data set [2] (no dose given, dose dependent), the “Peak Plasma Concentration” value is 0.44 to 0.55 µg/mL. Further, the “effect on hepatic oxidative metabolism” value in the data set on cytochrome P450 enzymes is on record as “do not seem to interfere with hepatic oxidation”.

With `Clc1ccc2c(c1)CCc1cccnc1C2=C1CCNCC1` [desloratadine, descarboethoxyloratadine], in [3], the “dose dependence of pharmacokinetics” value is reported as “independent of dose”.

As to `C=CCN1CC[C@]23c4c5ccc(O)c4O[C@H]2C(=O)CC[C@@]3(O)[C@H]1C5` [naloxone], the “alcohol-induced rosacea flushing (AIRF)” value in data set [4] was “blocked”. Besides, the “impairment by ethanol (typing errors)” value is “reversed this effect” in the data set with ethanol intoxication (CPAF group) and “no effect” with ethanol intoxication (non-flushing group).

`CN(C)CCC(c1ccc(Br)cc1)c1ccccn1` (centres unmarked) [Brompheniramine]: the Antihistaminic activity result at H1 receptor is “+++”. In addition, in the data set with muscarinic receptors, the Anticholinergic activity entry is on record as “++”.

As for `CC(CN(C)C)CN1c2ccccc2Sc2ccccc21` (centres unmarked) [Trimeprazine], at H1 receptor, the Antihistaminic activity result was “++ to +++”. Further, the Anticholinergic activity entry in the data set on muscarinic receptors was “+++”.

Turning to `CN(C)CC[C@@H](c1ccc(Cl)cc1)c1ccccn1` [Dexchlorpheniramine], in [5], the “interaction with an MAOI” value is given as “may cause severe hypotension”.

On to `CN(C)CCC(c1ccc(Cl)cc1)c1ccccn1` (centres unmarked) [Chlorpheniramine], for which the “sedative action of absorbed alcohol” value in the data set on alcohol-induced flushing [6] (in vivo) is reported as “potentiates the sedative action of the alcohol absorbed”. Besides, the “rise in skin oxygen tension after sherry” value in the data set with alcohol-induced flushing [6] is “did not affect the rise in skin oxygen tension”. Also, the “flushing response to red wine, chocolate and hot water challenges” value (from here on “flushing response to red wine”) in data set [7] is on record as “did not affect the flushing response”.

On to `Clc1cccc(Cl)c1N=C1NCCN1` [clonidine], for which, in data set [7], the “flushing response to red wine” value was “blocked the flushing responses to red wine and chocolate, but not to hot water”.

On to `CNC(=C[N+](=O)[O-])NCCSCc1csc(CN(C)C)n1` [Nizatidine], for which the “Peak Plasma Concentration” value in data set [2] (150 mg dose, dose dependent) is 0.7 to 1.8 µg/mL. Besides, in [2] (300 mg dose, dose dependent), the “Peak Plasma Concentration” value was 1.4 to 3.6 µg/mL. Moreover, the “Plasma concentrations 12 hours after administration” value in data set [2] (12 hours after administration) was “less than 10 mcg/L”. Further, in [2] (in vivo), the Bioavailability is reported as greater than 90%; the “Elimination, Metabolized” value was less than 18%; the “Protein Binding” value was “≈35%”; the “Time to Peak Plasma Concentration” value is 0.5 to 3 h. Also, the “Volume of Distribution” value in data set [2] (in vivo) was 0.8 to 1.5 L/kg. In addition, in data set [2], the Half-life is recorded as 1-2^3 hrs and the “Elimination, Urine, Unchanged, Oral” value is reported as 60%.

For `CN1CCC2=C(C1)C(c1ccccc1)c1ccccc12` (centres unmarked) [Phenindamine], at H1 receptor, the Antihistaminic activity result is listed as “++”. For the same molecule, in the data set with muscarinic receptors, the Anticholinergic activity result is “++”.

For `CN(C)CCN(Cc1ccccc1)c1ccccn1` [Tripelennamine], at H1 receptor, the Antihistaminic activity entry is reported as “+ to ++”. Besides, the Anticholinergic activity result in the data set with muscarinic receptors is reported as “±”.

Regarding `COc1ccc(CCN2CCC(Nc3nc4ccccc4n3Cc3ccc(F)cc3)CC2)cc1` [Astemizole], the “half-life, distribution phase” value in data set [8] (biphasic) is 20 h. Moreover, in data set [8] (in vivo), the protein bound is listed as 96.7%. Also, the “time to peak plasma levels” value in data set [8] is no more than 1 h. The “reduction of absorption when taken with food” value in data set [8] (with food) was 60%. Also, the “QT prolongation, ventricular arrhythmias, torsade de pointes” value in the data set with QT interval is “can cause QT interval prolongation/ventricular arrhythmias”.

Regarding `CN1CCC(CN2c3ccccc3Sc3ccccc32)C1` (centres unmarked) [Methdilazine], the Antihistaminic activity entry at H1 receptor is reported as “++ to +++”. Moreover, the Anticholinergic activity entry with muscarinic receptors is reported as “+++”.

Turning to `CC(=O)Oc1ccccc1C(=O)O` [aspirin, acetylsalicylic acid], the Body sway entry in the data set on alcohol-induced flushing [9] (both groups of subjects) is given as “reduced”. In addition, in the data set with alcohol-induced flushing [9] (flushing group), the “alcohol induced increase in heart rate” value is listed as “reduced” and the Facial flushing result is recorded as “markedly reduced”. Further, the Facial flushing entry in the data set with alcohol-induced flushing [9] (non-flushing Occidentals) is on record as “slightly increased”.

Regarding `NC(N)=Nc1nc(CSCCC(N)=NS(N)(=O)=O)cs1` [Famotidine], the “Peak Plasma Concentration” value in data set [2] (40 mg dose, dose dependent) is 0.076 to 0.1 µg/mL. Besides, the “Elimination, Urine, Unchanged, IV” value in [2] (IV) is on record as 65-70%. Moreover, in data set [2] (in vivo), the Bioavailability is 40-45%; the “Elimination, Metabolized” value is given as 30-35%; the “Protein Binding” value is reported as 15-20%; the “Time to Peak Plasma Concentration” value is 1 to 3 h. Further, the “Volume of Distribution” value in data set [2] (in vivo) is 1.1 to 1.4 L/kg. Further, in data set [2], the Half-life is 2.5-3.5^3 hrs and the “Elimination, Urine, Unchanged, Oral” value is reported as 25-30%. Besides, the “effect on hepatic oxidative metabolism” value with cytochrome P450 enzymes was “do not seem to interfere with hepatic oxidation”.

In the case of `CC(C)(C)c1ccc(C(O)CCCN2CCC(C(O)(c3ccccc3)c3ccccc3)CC2)cc1` (centres unmarked) [Terfenadine], in data set [8] (in vivo), the “dose eliminated via the urine” value was 40%, the elimination half-life was 20 h and the “fecal excretion of the dose” value was 60%. Moreover, the “time to peak plasma levels” value in data set [8] was 2 h. For the same molecule, the “single overdose associated with serious cardiovascular adverse events” value in the data set with QT interval is recorded as no less than 360 mg.

Turning to `CN/C(=N/CCSCc1nc[nH]c1C)NC#N` [Cimetidine], the “rise in skin oxygen tension after sherry” value with alcohol-induced flushing [6] is reported as “did noticeably reduce the increase in oxygen concentration”. Further, in data set [2] (300 mg dose, dose dependent), the “Peak Plasma Concentration” value is 0.7 to 3.2 µg/mL. Besides, in data set [2] (IV), the “Elimination, Urine, Unchanged, IV” value is reported as 75% and the “Peak Plasma Concentration” value is recorded as “(3.5-7.5 IV) mcg/ml”. Moreover, in [2] (in vivo), the Bioavailability is 60-70%; the “Elimination, Metabolized” value is 30-40%; the “Protein Binding” value was 13-25%; the “Time to Peak Plasma Concentration” value was 0.75 to 1.5 h. Moreover, in [2] (in vivo), the “Volume of Distribution” value is 0.8 to 1.2 L/kg and the “removal by hemodialysis or peritoneal dialysis” value is recorded as “not significantly removed by hemodialysis or peritoneal dialysis”. In data set [2], the Half-life entry is on record as “≈2^2 hrs”; the “Elimination, Urine, Unchanged, Oral” value is 48%; the “effect of food on absorption” value is “unaffected by food”. Moreover, the “effect on hepatic oxidative metabolism” value in the data set on cytochrome P450 enzymes is reported as “inhibits hepatic oxidative metabolism by most cytochrome P450 enzymes”. Further, the “flushing response to red wine” value in [7] is “blocked the flushing responses to red wine and chocolate, but not to hot water”.

In the case of `Cc1ccc(/C(=C\CN2CCCC2)c2ccccn2)cc1` [Triprolidine], on H1 receptor, the Antihistaminic activity entry was “++ to +++”. Moreover, the Anticholinergic activity entry with muscarinic receptors is “++”.

On to `CN1CCC(=C2c3ccccc3CCc3cccnc32)CC1` [Azatadine], for which the Antihistaminic activity entry on H1 receptor was “++”. The Anticholinergic activity entry with muscarinic receptors is listed as “++”.

Consider `CN(C)CCOC(c1ccc(Cl)cc1)c1ccccn1` (centres unmarked) [Carbinoxamine], for which the Antihistaminic activity result at H1 receptor is reported as “+ to ++”. In addition, in the data set on muscarinic receptors, the Anticholinergic activity result is listed as “+++”.
